Values joined by “and” are separate entries in the source; they are usually repeats but may differ in a detail not shown here. Equal entries are not always repeated. “Also recorded” adds a separate entry of the source.
Tests used:
[1] = tested on: T47D and MCF-7 human breast cancer cells; test: MTS cell viability assay; type: cell-based; conditions: T47D and MCF-7; 100 μM to 0.1 nM, 24 h
Protocol: Cell viability was assessed using the CellTiter 96 AQueous One Solution Cell Proliferation Assay (Promega, cat. no. G3580), following the manufacturer’s instructions. Briefly, T47D and MCF-7 human breast cancer cells were seeded in 96-well plates at a density of 10,000 cells/well in 100 μL of complete growth medium and allowed to adhere overnight. Cells were then treated with a serial dilution (100 μM to 0.1 nM) of SMI-10B, SMI-10B13, Temozolomide (positive control), or vehicle (DMSO) for 24 h. Following treatment, 20 μL of MTS reagent was added directly to each well, and plates were incubated at 37 °C in a humidified incubator with 5% CO2 and imaged after 1 h of incubation. Absorbance was measured at 490 nm by using a microplate reader. Cell viability was expressed as a percentage relative to the vehicle-treated controls, and experiments were performed in triplicate.

[2] = molecular target: T1, OSM (Homo sapiens, UniProt P13725); test: Fluorescence quenching assay of SMI binding to OSM; conditions: average of three independent replicates, errors at 95% confidence level, read-out: KD (OSM-SMI dissociation constant)
T1 sequence (P13725 26-252): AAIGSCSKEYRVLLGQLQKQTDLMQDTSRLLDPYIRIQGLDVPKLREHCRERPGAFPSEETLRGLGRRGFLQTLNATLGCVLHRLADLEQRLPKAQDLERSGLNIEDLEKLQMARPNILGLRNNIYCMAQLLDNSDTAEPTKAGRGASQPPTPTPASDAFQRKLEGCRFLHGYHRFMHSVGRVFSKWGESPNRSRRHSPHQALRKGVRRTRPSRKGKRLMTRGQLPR
Protocol: To perform fluorescence quenching assays, 2 mL of 1 μM OSM solution in polymethylmethacrylate cuvettes was prepared by dilution of a concentrated stock solution of recombinant OSM with buffer solution (100 mM sodium chloride, 50 mM sodium phosphate, 50 mM freshly added DTT, pH = 6.6). Cuvettes were titrated with 5 μL increments of a 1 mM small molecule stock solution in DMSO, with a cuvette titrated with an equivalent volume of DMSO as a control. […] In cases where little to no significant quenching was observed, the titration was supplemented with 2.5 μL increments of a 10 mM small molecule stock solution to increase the concentration delivered. The fluorescence intensity measurements were obtained on a Cary Eclipse spectrofluorometer equipped with a Xenon arc lamp. Fluorescence intensities were measured by exciting at 280 nm (4 nm slit width) and recording the emission from 345 to 355 nm with a photomultiplier tube voltage of 700 V, unless otherwise noted. Each titration point was normalized to OSM’s native fluorescence intensity, corrected by adding the decrease in fluorescence intensity caused by dilution with DMSO, and the average value of the three replicates for each point was plotted against concentration of small molecule delivered and fit to a modified Stern–Volmer function as described by Charlier and Plapp. Binding affinity (K D) values were obtained […] from the fitting routine. All curve-fitting analysis was performed in GraphPad Prism 8.0.

[3] = tested on: OSM-mediated signaling (pSTAT3, pAKT, pJNK, pERK) in T47D cells; test: Immunoblot of OSM-mediated signaling in T47D cells; type: cell-based, human; conditions: SMI 10 μM, OSM 10 ng/mL, 30 min
Protocol: For immunoblot analysis, T47D breast cancer cells were treated and collected in the same manner as described above for the ELISA preparation. After lysate collection, samples were run on a 10% SDS-PAGE gel and transferred to a nitrocellulose membrane via semidry transfer. Blots were rinsed with DI H2O and allowed to completely dry at room temperature before blocking with LiCor Intercept PBS Blocking Buffer (LiCor, Lincoln, NE; Cat# 927-90001) for 1 h. After blocking, primary antibodies (1:1000) suspended in blocking buffer supplemented with 0.1% Tween were added, shaken at room temperature for 1 h, and stored at 4 °C overnight. Membranes were then washed 6 times for 5 minutes each with 1X PBS supplemented with 0.5% Tween while shaking at room temperature, and secondary antibodies (1:15,000) were applied and incubated for 1 h. Afterward, membranes were washed as previously described above and imaged at 700 nm using the LiCor Odyssey CLx Imaging System. Quantification of immunoblots was performed using the LiCor Image Studio software, normalizing to β-Actin, and calculating relative fold change compared to nontreated samples. Antibodies used included phospho-STAT3 (Y705) (Cell Signaling Technology, Danvers, MA; cat. no. 9145), phospho-AKT (S473) (Cell Signaling Technology, Danvers, MA; cat. no. 4060), phospho-JNK ([…]/[…]) (Cell Signaling Technology, Danvers, MA; cat. no. 4668), phospho-ERK (T202/Y204) (Cell Signaling Technology, Danvers, MA; cat. no. 9101), β-Actin (Cell Signaling Technology; cat. no. 3700), and donkey antirabbit IRDye 800CW (LiCor, Lincoln, NE; Cat# 925-32213).

| Compound | Cytotoxicity / cell viability via MTS assay [1] | Kd [2] | Inhibition of OSM-mediated signaling cascades by immunoblot (words) [3] | Inhibition of OSM-mediated signaling cascades by immunoblot (words) ([3]; listed as 10B) |
| --- | --- | --- | --- | --- |
| O=C(O)/C=C/c1cc(-c2ccc3cc[nH]c3c2)c(-c2ccc3cc[nH]c3c2)o1 [SMI-10B13, (E)-3-(4,5-di(1H-Indol-6-yl)furan-2-yl)acrylic Acid] | Minimal toxicity; also recorded: minimal to no cytotoxicity at high concentrations | ~7 µM and 6.6 µM | most effective; also recorded: better at inhibiting pSTAT3, pAKT, pJNK, and pERK signaling | – |
| O=C(O)/C=C/c1cc(-c2ccc3c(c2)OCO3)c(-c2ccc3c(c2)OCO3)o1 [SMI-10B, (E)-3-(4,5-Bis(benzo[d][1,3]dioxol-5-yl)furan-2-yl)acrylic acid] | Minimal toxicity; also recorded: minimal to no cytotoxicity at high concentrations | 12.9 ± 1.5 µM | significant reductions, near nontreated levels | capable of inhibiting multiple cascades |

Reference: article PMC12362618, “Development of the First Small-Molecule Inhibitor Targeting Oncostatin M for Treatment of Breast Cancer” (Journal of Medicinal Chemistry, 2025)
